Experimental data from patent US7407936B2, “Use of copolymer 1 and related peptides and polypeptides and T cells treated herewith for neuroprotective glaucoma therapy” (Yeda Research and Development Co. Ltd., priority 2000, dated 2008).

Assays:
[1] = tested on: retinal ganglion cells (RGCs); test: Glutamate toxicity in mice (intravitreal glutamate), RGC survival; format: in vivo, C57BL/6J mice
[2] = patients, cited from earlier work
[3] = tested on: retinal ganglion cells (RGCs); test: Severe optic nerve crush injury in mice, RGC survival; format: in vivo, Balb/c mice; conditions: 50 μg Cop-1 in CFA before severe crush; two weeks after injury; p<0.001
[4] = batches of average molecular weight 23,000; Teitelbaum et al; cited from earlier work
[5] = tested on: retinal ganglion cells; test: Ocular hypertension (laser-induced increased IOP) in rats, RGC survival; format: in vivo, Lewis rats; conditions: immunized in CFA on the day of the first laser treatment; after 3 weeks; p<0.0001
[6] = tested on: retinal ganglion cells (RGCs); test: Optic nerve crush injury in rats: secondary degeneration by retrograde labeling of RGCs; format: in vivo, Lewis rats; conditions: mild crush; vaccinated with Cop 1 in IFA immediately, booster two days later; P<0.05
Method: Crush Injury of Optic Nerve. The optic nerve was subjected to crush injury as previously described (Duvdevani et al, 1990). Briefly, rats were deeply anesthetized by intraperitoneal (i.p.) injection of Rompun (xylazine, 10 mg/kg; Vitamed, Israel) and Vetalar (ketamine, 50 mg/kg; Fort Dodge Laboratories, Fort Dodge, Iowa). Using a binocular operating microscope, lateral canthotomy was performed in the right eye, and the conjunctiva was incised lateral to the cornea. After separation of the retractor bulbi muscles, the optic nerve was exposed intraorbitally by blunt dissection. Using calibrated cross-action forceps, the optic nerve was subjected to a crush injury 1-2 mm from the eye. […]
Measurement of Secondary Degeneration by Retrograde Labeling of Retinal Ganglion Cells. Secondary degeneration of the optic nerve axons and their attached retinal ganglion cells (RGCs) was measured after post-injury application of the fluorescent lipophilic dye, 4-(4-(didecylamino)styryl)-N-methylpyridinium iodide (4-Di-10-Asp) (Molecular Probes Europe BV, Netherlands), distally to the lesion site, two weeks after crush injury. Because only axons that are intact can transport the dye back to their cell bodies, application of the dye distally to the lesion site after two weeks ensures that only axons that survived both the primary damage and the secondary degeneration will be counted. […]

[7] = tested on: retinal ganglion cells (RGCs); test: NMDA toxicity in mice (intravitreal NMDA), RGC survival; format: in vivo; conditions: immunized ten days before NMDA (75 nmole); p=0.55 vs PBS

Substance | RGC survival after glutamate injection, effect of immunization ([1]; pMOG in CFA prior to glutamate (200 nmole), assessed 1 week later) | number of relapses in exacerbating-remitting MS ([2]; Bornstein 1990, Sela 1990, Johnson 1994) | tolerability in clinical trials ([2]; Johnson et al, 1995) | RGC survival rates relative to non-immunized controls [3] | protecting and suppressing EAE [4] | glutamate toxicity in controls relative to immunized mice ([1]; 75 μg Cop 1 in CFA ten days before 200 nmoles glutamate, RGCs counted seven days later) | mean percentage survival rate of RGCs versus PBS-injected ([1]; immunization 24 h after glutamate injection) | mean percentage survival rate of RGCs versus PBS-injected ([1]; immunization 48 h after glutamate injection) | rates of RGC survival versus PBS in adjuvant ([1]; immunized on the day of glutamate injection, adjuvant 0.5 or 5 mg/ml bacteria) | glutamate toxicity (RGC survival) after immunization ([1]; immunized ten days before glutamate, adjuvant 5 mg/ml bacteria) | numbers of surviving retinal ganglion cells versus PBS/CFA controls [5] | neuroprotection (surviving RGCs) compared with PBS in IFA [6] | protection from toxicity caused by NMDA (RGC survival) [7]
GQFRVIGPGHPIRALVGDEAEL (listed as Homo sapiens) [pMOG, Myelin oligodendrocyte glycoprotein (MOG) peptide 1-22] | no evidence of a beneficial effect |  |  |  |  |  |  |  |  |  |  |  | 
Glatiramer acetate [Cop 1] |  | significantly reduce | well tolerated with only minor side reactions | significantly higher | highly effective | about four | significantly higher | not significant | significantly higher | significant reduction | significantly higher | significant neuroprotection | failed to protect
